The text below walks through data of US9771333B2, “Quinazoline derivatives as TAM family kinase inhibitors” (SIGNALCHEM LIFESCIENCES CORP., priority 2013, dated 2017).

Common to all, as to format: biochemical
Experiment [1] addresses T1, human Tyro3 (Homo sapiens, UniProt Q06418).
T1 construct: GST (N); made in house; host or cells: Sf9 insect cells (baculovirus)
T1 sequence (Q06418 455-890 limits assumed): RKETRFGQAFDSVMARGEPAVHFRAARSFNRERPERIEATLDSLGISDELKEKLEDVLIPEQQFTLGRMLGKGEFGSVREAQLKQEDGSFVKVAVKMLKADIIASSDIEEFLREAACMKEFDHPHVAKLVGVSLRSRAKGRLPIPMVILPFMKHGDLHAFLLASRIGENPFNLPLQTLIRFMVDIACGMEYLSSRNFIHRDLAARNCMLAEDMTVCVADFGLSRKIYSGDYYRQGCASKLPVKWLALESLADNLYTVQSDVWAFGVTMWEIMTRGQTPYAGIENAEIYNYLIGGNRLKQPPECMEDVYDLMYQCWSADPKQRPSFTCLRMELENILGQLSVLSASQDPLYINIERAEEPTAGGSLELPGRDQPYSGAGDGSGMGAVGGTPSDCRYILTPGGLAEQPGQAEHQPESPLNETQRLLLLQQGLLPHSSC
Nature of the experiment: Kinase enzymatic activity assay (33P-radiolabeled phosphate transfer), Tyro3. The following applies: recombinant human Tyro3 (455-end), poly(4:1 glu:tyr) substrate, 30 minutes. An outline of the steps:
(§1)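 GST-tagged human Tyro3 (455-end), Axl (473-end) and Mer (578-872) from Sf9 cells, with poly(Glu:Tyr) 4:1 substrate, in MOPS pH 7.2 buffer with MgCl2. [33P]-ATP added from a 250 µM cocktail; reaction 30 min at room temperature, filter-captured counts, duplicates. IC50 derived from % inhibition over a compound serial dilution.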

In experiment [2] the target is T2, human Mer (Homo sapiens, UniProt Q12866).
T2 construct: GST (N); made in house; host or cells: Sf9 insect cells (baculovirus)
T2 sequence (Q12866 578-872): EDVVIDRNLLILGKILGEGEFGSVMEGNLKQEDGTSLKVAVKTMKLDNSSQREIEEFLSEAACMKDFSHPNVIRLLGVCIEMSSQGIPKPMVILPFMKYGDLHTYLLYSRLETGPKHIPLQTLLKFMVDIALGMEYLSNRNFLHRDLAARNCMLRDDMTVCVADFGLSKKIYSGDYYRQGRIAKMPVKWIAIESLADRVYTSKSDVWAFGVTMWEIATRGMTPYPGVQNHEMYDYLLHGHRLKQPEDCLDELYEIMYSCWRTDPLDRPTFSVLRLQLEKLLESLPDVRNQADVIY
Nature of the experiment: Kinase enzymatic activity assay (33P-radiolabeled phosphate transfer), Mer. The conditions noted are these: recombinant human Mer (578-872), poly(4:1 glu:tyr) substrate, 30 minutes. An outline of the steps: as §1

The target in experiment [3] is T3, human Axl (Homo sapiens, UniProt P30530).
T3 construct: GST (N); made in house; host or cells: Sf9 insect cells (baculovirus)
T3 sequence (P30530 473-894 limits assumed): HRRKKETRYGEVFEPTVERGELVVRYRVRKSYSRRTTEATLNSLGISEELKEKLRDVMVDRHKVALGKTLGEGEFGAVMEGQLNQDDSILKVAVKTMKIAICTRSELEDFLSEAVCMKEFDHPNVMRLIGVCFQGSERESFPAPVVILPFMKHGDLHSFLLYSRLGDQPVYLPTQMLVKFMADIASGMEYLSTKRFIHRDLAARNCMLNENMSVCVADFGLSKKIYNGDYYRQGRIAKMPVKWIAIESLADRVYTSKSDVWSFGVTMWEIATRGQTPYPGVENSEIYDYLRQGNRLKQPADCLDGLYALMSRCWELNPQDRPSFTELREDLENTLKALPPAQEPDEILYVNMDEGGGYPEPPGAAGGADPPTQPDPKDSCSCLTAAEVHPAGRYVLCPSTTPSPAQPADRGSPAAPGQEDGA
Nature of the experiment: Kinase enzymatic activity assay (33P-radiolabeled phosphate transfer), Axl. The following applies: recombinant human Axl (473-end), poly(4:1 glu:tyr) substrate, 30 minutes. The method in brief:
as §1

For `CN1CCN(CCOc2cc(OC3CCOCC3)c3c(Oc4ccc(F)cc4Cl)ncnc3c2)CC1` [Example 3, 4-(2-chloro-4-fluorophenoxy)-7-(2-(4-methylpiperazin-1-yl)ethoxy)-5-((tetrahydro-2H-pyran-4-yl)oxy)quinazoline], the figures for the IC50 in experiment [1], in experiment [2] and in experiment [3] were 500 to 1000 nM, 1000 to 10000 nM and 1000 to 10000 nM, respectively.

Consider `COc1cc(OC2CCOCC2)c2c(Oc3ccc(F)cc3Cl)ncnc2c1` [Example 3.1, 4-(2-chloro-4-fluorophenoxy)-7-methoxy-5-((tetrahydro-2H-pyran-4-yl)oxy)quinazoline], for which the half-inhibitory concentration (IC50) (commonly the concentration needed to halve the response being measured) is 500 to 1000 nM in experiment [1], 500 to 1000 nM in experiment [2] and > 10000 nM in experiment [3].

As to `CN1CCN(CCOc2cc(OC3CCOCC3)c3c(Oc4ccccc4)ncnc3c2)CC1` [Example 3.2, 7-(2-(4-methylpiperazin-1-yl)ethoxy)-4-phenoxy-5-((tetrahydro-2H-pyran-4-yl)oxy)quinazoline], the IC50 in experiment [1] was < 500 nM; in experiment [2], 1000 to 10000 nM; in experiment [3], < 500 nM.

On to `CN1CCN(CCOc2cc(OC3CCOCC3)c3c(Sc4ccc(F)cc4Cl)ncnc3c2)CC1` [Example 3.3, 4-((2-chloro-4-fluorophenyl)thio)-7-(2-(4-methylpiperazin-1-yl)ethoxy)-5-((tetrahydro-2H-pyran-4-yl)oxy)quinazoline], for which the IC50 is < 500 nM in experiment [1], 1000 to 10000 nM in experiment [2] and > 10000 nM in experiment [3].

As for `CN1CCN(CCOc2cc(OC3CCOCC3)c3c(OC4CCCCC4)ncnc3c2)CC1` [Example 3.4, 4-(cyclohexyloxy)-7-(2-(4-methylpiperazin-1-yl)ethoxy)-5-((tetrahydro-2H-pyran-4-yl)oxy)quinazoline], the IC50 lay within 1000 to 10000 nM in experiment [1], 500 to 1000 nM in experiment [2] and 500 to 1000 nM in experiment [3].

In the case of `COCCOc1cc(OCCN2CCN(C)CC2)cc2ncnc(Sc3ccc(Cl)cc3)c12` [Example 4, 4-((4-chlorophenyl)thio)-5-(2-methoxyethoxy)-7-(2-(4-methylpiperazin-1-yl)ethoxy)quinazoline], the figures for the IC50 in experiment [1], in experiment [2] and in experiment [3] were 1000 to 10000 nM, > 10000 nM and > 10000 nM, respectively.

`COCCOc1cc(OCCN2CCN(C)CC2)cc2ncnc(Sc3ccc(F)cc3)c12` [Example 4.1, 4-((4-fluorophenyl)thio)-5-(2-methoxyethoxy)-7-(2-(4-methylpiperazin-1-yl)ethoxy)quinazoline]: the IC50 in experiment [1] is 500 to 1000 nM; in experiment [2], > 10000 nM; in experiment [3], > 10000 nM.

Consider `COCCOc1cc(OCCN2CCN(C)CC2)cc2ncnc(Sc3cc(Cl)cc(Cl)c3)c12` [Example 4.2, 4-((3,5-dichlorophenyl)thio)-5-(2-methoxyethoxy)-7-(2-(4-methylpiperazin-1-yl)ethoxy)quinazoline], for which the IC50 is 1000 to 10000 nM in experiment [1], > 10000 nM in experiment [2] and 1000 to 10000 nM in experiment [3].

As to `COCCOc1cc(OCCN2CCN(C)CC2)cc2ncnc(Sc3cc(F)cc(F)c3)c12` [Example 4.3, 4-((3,5-difluorophenyl)thio)-5-(2-methoxyethoxy)-7-(2-(4-methylpiperazin-1-yl)ethoxy)quinazoline], the IC50 was 1000 to 10000 nM in experiment [1], > 10000 nM in experiment [2] and 1000 to 10000 nM in experiment [3].

In the case of `COCCOc1cc(OCCN2CCN(C)CC2)cc2ncnc(Sc3ccc(Cl)cc3Cl)c12` [Example 4.4, 4-((2,4-dichlorophenyl)thio)-5-(2-methoxyethoxy)-7-(2-(4-methylpiperazin-1-yl)ethoxy)quinazoline], the IC50 in experiment [1] was 1000 to 10000 nM; in experiment [2], > 10000 nM; in experiment [3] it was 1000 to 10000 nM.

In the case of `COCCOc1cc(OCCN2CCN(C)CC2)cc2ncnc(Sc3ccc(F)c(Br)c3)c12` [Example 4.5, 4-((3-bromo-4-fluorophenyl)thio)-5-(2-methoxyethoxy)-7-(2-(4-methylpiperazin-1-yl)ethoxy)quinazoline], the IC50 in experiment [1] is < 500 nM; in experiment [2], > 10000 nM; in experiment [3], 1000 to 10000 nM.

`CN1CCC(COc2cc(OC3CCOCC3)c3c(Oc4ccc(F)cc4Cl)ncnc3c2)CC1` [Example 4.7, 4-(2-chloro-4-fluorophenoxy)-7-((1-methylpiperidin-4-yl)methoxy)-5-((tetrahydro-2H-pyran-4-yl)oxy)quinazoline]: the IC50 in experiment [1] is < 500 nM; in experiment [2] it was < 500 nM; in experiment [3], 500 to 1000 nM.

On to `Fc1ccc(Oc2ncnc3cc(OCCCN4CCOCC4)cc(N4CCOCC4)c23)c(Cl)c1` [Example 4.8, 4-(3-((4-(2-chloro-4-fluorophenoxy)-5-morpholinoquinazolin-7-yl)oxy)propyl)morpholine], for which the results for the IC50 in experiment [1], in experiment [2] and in experiment [3] were 1000 to 10000 nM, 1000 to 10000 nM and > 10000 nM, respectively.

On to `CN1CCN(c2cc(OCCCN3CCOCC3)cc3ncnc(Oc4ccc(F)cc4Cl)c23)CC1` [Example 4.9, 4-(3-((4-(2-chloro-4-fluorophenoxy)-5-(4-methylpiperazin-1-yl)quinazolin-7-yl)oxy)propyl)morpholine], for which the values for the IC50 in experiment [1], in experiment [2] and in experiment [3] were < 500 nM, 1000 to 10000 nM and > 10000 nM, respectively.

Consider `CN1CCC(COc2cc(OC3CCOCC3)c3c(Oc4cccc(C(F)(F)F)c4)ncnc3c2)CC1` [Example 4.10, 7-((1-methylpiperidin-4-yl)methoxy)-5-((tetrahydro-2H-pyran-4-yl)oxy)-4-(3-(trifluoromethyl)phenoxy)quinazoline], for which the IC50 in experiment [1] is < 500 nM; in experiment [2] it was 500 to 1000 nM; in experiment [3], 500 to 1000 nM.

As for `CN1CCC(COc2cc(OC3CCOCC3)c3c(Oc4ccc(C(F)(F)F)cc4)ncnc3c2)CC1` [Example 4.11, 7-((1-methylpiperidin-4-yl)methoxy)-5-((tetrahydro-2H-pyran-4-yl)oxy)-4-(4-(trifluoromethyl)phenoxy)quinazoline], the IC50 in experiment [1] is < 500 nM; in experiment [2], 500 to 1000 nM; in experiment [3] it was < 500 nM.

For the compound `OC[C@@H](O)COc1cc(OC2CCOCC2)c2c(Oc3ccc(F)cc3Cl)ncnc2c1` [Example 5, (R)-3-((4-(2-chloro-4-fluorophenoxy)-5-((tetrahydro-2H-pyran-4-yl)oxy)quinazolin-7-yl)oxy)propane-1,2-diol], the IC50 was 500 to 1000 nM in experiment [1], 500 to 1000 nM in experiment [2] and 1000 to 10000 nM in experiment [3].

Turning to `CC(C)Oc1ncnc2cc(OCC3CCN(C)CC3)cc(OC3CCOCC3)c12` [Example 6, 4-isopropoxy-7-((1-methylpiperidin-4-yl)methoxy)-5-((tetrahydro-2H-pyran-4-yl)oxy)quinazoline], the IC50 in experiment [1], in experiment [2] and in experiment [3] was < 500 nM each time.

For the compound `CCN(CC)CCNc1cc(OC2CCOCC2)c2c(Nc3nc(C(F)(F)F)cs3)ncnc2c1` [Example 7, N^7-(2-(diethylamino)ethyl)-5-((tetrahydro-2H-pyran-4-yl)oxy)-N^4-(4-(trifluoromethyl)thiazol-2-yl)quinazoline-4,7-diamine], the IC50 in experiment [1] was > 10000 nM; in experiment [2] it was > 10000 nM; in experiment [3] it was 1000 to 10000 nM.

Take `CN1CCC(COc2cc(OC3CCOCC3)c3c(Nc4ncn[nH]4)ncnc3c2)CC1` [Example 8, 7-((1-methylpiperidin-4-yl)methoxy)-5-((tetrahydro-2H-pyran-4-yl)oxy)-N-(1H-1,2,4-triazol-5-yl)quinazolin-4-amine]: the half-inhibitory concentration (IC50) in experiment [1], in experiment [2] and in experiment [3] was > 10000 nM in each case.
